# According to patent publication US20110312934A1, “2-ALKYL-6-CYCLOAMINO-3-(PYRIDIN-4-YL)IMIDAZO[1,2-B]-PYRIDAZINE DERIVATIVES, PREPARATION THEREOF, AND THERAPEUTIC APPLICATION THEREOF” (SANOFI-AVENTIS, priority 2008, published 2011):
# What was measured:
# [1] = tested on: Mper1-luc Rat-1 (P2C4) fibroblasts; assay: Circadian cell assay (mPer1 luciferase reporter, period prolongation); type: cell-based; settings: effective concentration that induced a 1-hour prolongation of the circadian period, interpolated from hyperbolic curve
# Protocol: Mper1-luc Rat-1 (P2C4) fibroblast cultures were prepared by dividing the cultures every 3-4 days (approximately 10-20% of confluence) on 150 cm^2 degassed polystyrene tissue culture flasks (Falcon® #35-5001) and maintained in growth medium [EMEM (Cellgro #10-0,0-CV); 10% foetal bovine serum (FBS; Gibco #16000-044); and 50 I.U./ml of penicillin-streptomycin (Cellgro #30-001-CI)] at 37° C. and under 5% CO2.
# Cells obtained from Rat-1 fibroblast cultures at 30-50% of confluence as described above were co-transfected with vectors containing the selection marker for resistance to zeocin for a stable transfection and a luciferase reporter gene controlled by the mPer-1 promoter. After 24 to 48 hours, the cultures were divided on 96-well plates and maintained in growth medium supplemented with 50-100 μg/ml of zeocin (Invitrogen® #45-0430) for 10-14 days. The zeocin-resistant stable transfectants were evaluated for the expression of the reporter by adding 100 μM luciferin (Promega® #E1603®) to the growth medium and by assaying the luciferase activity on a TopCount® scintillation counter (Packard Model #C384V00). The Rat-1 cell clones expressing both zeocin resistance and lucerifase activity controlled by mPer1 were serum-shock synchronized with 50% horse serum [HS (Gibco® #16050-122)] and the activity of the circadian reporter was evaluated. The P2C4 clone of Mper1-luc Rat-1 fibroblasts was selected to test the compound.
# Mper1-luc Rat-1 (P2C4) fibroblasts at 40-50% of confluence, obtained according to the protocol described above, were plated out onto 96-well opaque tissue culture plates (Perkin Elmer® #6005680). The cultures are maintained in growth medium supplemented with 100 μg/ml of zeocin (Invitrogen #45-0430) until they reach 100% of confluence (48-72 h). The cultures were then synchronized with 100 μl of synchronization medium [EMEM (Cellgro #10-0,0-CV); 100 I.U./ml of penicillin-streptomycin (Cellgro #30-001-C1); 50% HS (Gibco #16050-122)] for 2 hours at 37° C. and under 5% CO2. After synchronization, the cultures were rinsed with 100 μl of EMEM (Cellgro #10-010-CV) for 10 minutes at ambient temperature. After rinsing, the medium was replaced with 300 μl of CO2 independent medium [CO2I (Gibco #18045-088); 2 mM L-glutamine (Cellgro #25-005-C1); 100 U.I./ml of penicillin-streptomycin (Cellgro #30-001-C1); 100 μM luciferin (Promega #E 1603)]. […]
# The two methods produced a virtually identical period estimation on a range of circadian periods. […] The data were analysed by adjusting a hyperbolic curve to the data expressed as change of period (y-axis) as a function of the concentration of the test compound (x-axis) in the XLfit™ software and the CE Delta (t+1 h) was interpolated from this curve.
smiles,measurement,setting,value
"Cc1nc2ccc(N3CCNCC3)nn2c1-c1ccncc1 [Compound 1, 2-Methyl-6-piperazin-1-yl-3-pyridin-4-yl-imidazo[1,2-b]pyridazine]",CE Delta (t + 1 h),[1],20 nM
same,melting point,,166 to 168 °C
